Test results reported in patent US4450269A, “Mono-5-substituted-3-chloro-4H-1,2,6-thiadiazin-4-one antifungal agents” (FMC Corporation, priority 1980, dated 1984).

Experiments:
[1] = tested on: Uromyces phaseoli; assay: whole plant or invertebrate; settings: foliar, read-out: Percent Disease Control, foliar, bean rust
[2] = tested on: Helminthosporium oryzae; assay: Mycelial growth test; settings: Bipolaris oryzae, 72 h; for inhibition at 5 ppm: read-out: Percent Fungus Growth Inhibition, HO, 5 ppm, 72 hours; for inhibition at 10 ppm: read-out: Percent Fungus Growth Inhibition, HO, 10 ppm, 72 hours; for inhibition at 20 ppm: read-out: Percent Fungus Growth Inhibition, HO, 20 ppm, 72 hours; for inhibition at 40 ppm: read-out: Percent Fungus Growth Inhibition, HO, 40 ppm, 72 hours
Protocol: HO = Helminthosporium oryzae
Aliquots of previously prepared solutions of active ingredient in acetone were added to tubes containing 20 ml of sterile, melted potato dextrose agar that had been cooled to 50° C. to provide mixtures of 40, 20, 10, 5 and 2.5 ppm. The tubes were shaken to ensure thorough mixing of the chemical with the agar, and the mixture poured into petri dishes having 4 quadrants to solidify. Each quadrant was inoculated with a 4 mm diameter disc of agar containing mycelium of the test fungi and incubated at 25° C. for 72 hours during which the samples were alternately exposed to light for 12 hours and to darkness for 12 hours. Growth was measured at the end of the incubation period by measuring the diameter of each fungus colony. Two measurements of the diameter, perpendicular to each other, were taken and the values averaged. Data are reported as percent inhibition (%I) by the following formula: [formula] Captan and chlorothalonil were used as standards for comparison.

SMILES	pest or weed control at 150 ppm [1]	inhibition at 5 ppm [2]	inhibition at 10 ppm [2]	inhibition at 20 ppm [2]	inhibition at 40 ppm [2]
O=C(O)Cc1ccccc1Oc1nsnc(Cl)c1=O [Compound 45, 3-(2-carboxymethylphenoxy)-5-chloro-4H--1,2,6-thiadiazin-4-one]	95%	0%	0%	63%	100%
Cc1ccccc1Oc1nsnc(Cl)c1=O [Compound 22, 3-chloro-5-(2-methylphenoxy)-4H--1,2,6-thiadiazin-4-one]	100%	100%	100%	100%	100%
O=C(Nc1ccccc1)Nc1ccc(Oc2nsnc(Cl)c2=O)cc1 [Compound 29, 3-chloro-5-[4-(3-phenylureido)-phenoxy]-4H--1,2,6-thiadiazin-4-one]	0%	0%	0%	14%	0%
CCCCOc1ccc(Oc2nsnc(Cl)c2=O)cc1 [Compound 6, 3-chloro-5-(4-n-butoxyphenoxy)-4H--1,2,6-thiadiazin-4-one]	0%	0%	0%	0%	48%
Cc1ccc(Oc2nsnc(Cl)c2=O)c(C)c1 [Compound 23, 3-chloro-5-(2,4-dimethylphenoxy)-4H--1,2,6-thiadiazin-4-one]	100%	100%	100%	100%	100%
O=c1c(Cl)nsnc1Oc1ccc([N+](=O)[O-])cc1Cl [Compound 53, 3-chloro-5-(2-chloro-4-nitrophenoxy)-4H--1,2,6-thiadiazin-4-one]	100%	27%	100%	100%	100%
CC(=O)Nc1cccc(Oc2nsnc(Cl)c2=O)c1 [Compound 42, 3-[(3-N--acetylamino)-phenoxy]-5-chloro-4H--1,2,6-thiadiazin-4-one]	100%	23%	38%	100%	100%
COc1ccc(Oc2nsnc(Cl)c2=O)cc1 [Compound 5, 3-chloro-5-(4-methoxyphenoxy)4H--1,2,6-thiadiazin-4-one]	100%	50%	64%	73%	100%
O=c1c(Cl)nsnc1Oc1ccccc1Cl [Compound 14, 3-chloro-5-(2-chlorophenoxy)-4H--1,2,6-thiadiazin-4-one]	0%	71%	71%	100%	100%
O=c1c(Cl)nsnc1Oc1ccccc1 [Compound 2, 3-chloro-5-phenoxy-4H--1,2,6-thiadiazin-4-one]	100%	55%	64%	100%	100%
CS(=O)(=O)c1ccc(Oc2nsnc(Cl)c2=O)cc1 [Compound 41, 3-chloro-5-[(4-methylsulfonyl)phenoxy]-4H--1,2,6-thiadiazin-4-one]	0%	40%	60%	33%	60%
O=C(OCc1ccccc1)Oc1ccc(Oc2nsnc(Cl)c2=O)cc1 [Compound 38, 3-chloro-5-[4-(phenylmethoxycarbonyloxy)phenoxyl]-4H-1,2,6-thiadiazin-4-one]	0%	56%	39%	89%	100%
Cc1cccc(C)c1Oc1nsnc(Cl)c1=O [Compound 24, 3-chloro-5-(2,6-dimethylphenoxy)-4H--1,2,6-thiadiazin-4-one]	100%	86%	100%	100%	100%
O=c1c(Cl)nsnc1Oc1ccc(Br)cc1 [Compound 15, 3-chloro-5-(4-bromophenoxy)-4H--1,2,6-thiadiazin-4-one]	100%	57%	90%	95%	100%
O=c1c(Cl)nsnc1Oc1ccccc1Br [Compound 34, 3-chloro-5-(2-bromophenoxy)-4H-1,2,6,-thiadiazin-4-one]	85%	74%	74%	100%	100%
Cc1cc(C)cc(Oc2nsnc(Cl)c2=O)c1 [Compound 25, 3-chloro-5-(3,5-dimethylphenoxy)-4H--1,2,6-thiadiazin-4-one]	100%	79%	100%	100%	100%
CCOC(=O)c1ccc(Oc2nsnc(Cl)c2=O)cc1 [Compound 7, 3-chloro-5-(4-ethoxycarbonylphenoxy)-4H--1,2,6-thiadiazin-4-one]	100%	48%	43%	100%	100%
Cc1cccc(Oc2nsnc(Cl)c2=O)c1 [Compound 21, 3-chloro-5-(3-methylphenoxy)-4H--1,2,6-thiadiazin-4-one]	100%	64%	86%	100%	100%
N#CCc1ccc(Oc2nsnc(Cl)c2=O)cc1 [Compound 46, 3-chloro-5-[(4-cyanomethyl)-phenoxy]4H--1,2,6-thiadiazin-4-one]	0%	67%	89%	100%	100%
O=c1c(Cl)nsnc1Oc1cc(Cl)cc(Cl)c1 [Compound 20, 3-chloro-5-(3,5-dichlorophenoxy)-4H--1,2,6-thiadiazin-4-one]	100%	100%	100%	100%	100%
O=c1c(Cl)nsnc1Oc1cccc(C(F)(F)F)c1 [Compound 44, 3-chloro-5-[(3-trifluoromethyl)phenoxy]-4H--1,2,6-thiadiazin-4-one]	100%	100%	100%	100%	100%
